Assay results published in patent US11389447B2 (Janssen Sciences Ireland Unlimited Company, priority 2006, dated 2022).

Assay: Kinetic study: plasma kinetics of TMC278 after single IM or SC injection of a nanosuspension;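 further: healthy male beagle dogs injected in both biceps femoris muscles (IM) or both thoracal sides (SC), total volume 0.2 mL/kg, drug measured in plasma from blood samples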
Assay type: in vivo, male beagle dogs
Conditions: for AUC0-312 h / AUC0-696 h / AUC0-2208 h / Cmax / Tmax / plasma concentration of TMC278: single IM 5 mg eq./kg TMC278.HCl nanosuspension
Description: Six healthy male beagle dogs with body weights ranging from 8 to 16 kg at the start of the study, were used. Each dog was identified by an ear tattoo number. Two dogs were dosed intramuscularly (IM) in the left and right m. biceps femoris (treatment group A). […] Two dogs were dosed subcutaneously (SC) in the left and right thoracal region. The injection volume was 2×0.1 ml/kg in all treatment groups. A 20 G needle was used.
Blood samples of 3 ml were taken from the left jugular vein from all dogs on day 0 at 0 h (predose), 20 min, 1 h, 3 h, 8 h and 24 h post-dose and further on days 2, 3, 6, 8, 10, 13, 16, 20, 23, 27, 29, 36, 43, 50, 57, 64, 71, 78, 85 and 92 at approximately 8 AM. Blood samples were placed on EDTA, EDTA Vacuette Greiner, Cat. No. 454086, Greiner Labortechnik N.V.). Within 2 h of blood sampling, samples were centrifuged at room temperature at about 1900×g for 10 minutes to allow plasma separation. Plasma was immediately transferred into a second tube and stored in the freezer within 2 hours after the start of centrifugation.

Cc1cc(/C=C/C#N)cc(C)c1Nc1ccnc(Nc2ccc(C#N)cc2)n1.Cl [TMC278.HCl]
blood plasma levels after injection (in words) (injectable formulation of nanonised substance, 5 mg/kg, male beagle dogs): stable blood plasma levels during a prolonged period of time | AUC0-312 h (dog 19072): 15000 ng·h/mL | AUC0-696 h (dog 19072): 20300 ng·h/mL | AUC0-2208 h (dog 19072): 27400 ng·h/mL | Cmax (dog 19072): 85.6 ng/mL | Tmax (dog 19072): 48 h | plasma concentration of TMC278 (dog 19072, 0 h (d0, predose)): <1.00 ng/mL | plasma concentration of TMC278 (dog 19072, 1 h): 7.80 ng/mL | plasma concentration of TMC278 (dog 19072, 3 h): 14.7 ng/mL | plasma concentration of TMC278 (dog 19072, 8 h): 32.2 ng/mL | plasma concentration of TMC278 (dog 19072, 24 h (d1)): 50.1 ng/mL | plasma concentration of TMC278 (dog 19072, 48 h (d2)): 85.6 ng/mL | plasma concentration of TMC278 (dog 19072, 72 h (d3)): 47.5 ng/mL | plasma concentration of TMC278 (dog 19072, 144 h (d6)): 48.3 ng/mL | plasma concentration of TMC278 (dog 19072, 192 h (d8)): 46.8 ng/mL | plasma concentration of TMC278 (dog 19072, 240 h (d10)): 55.7 ng/mL | plasma concentration of TMC278 (dog 19072, 312 h (d13)): 27.0 ng/mL | plasma concentration of TMC278 (dog 19072, 384 h (d16)): 17.0 ng/mL | plasma concentration of TMC278 (dog 19072, 480 h (d20)): 13.7 ng/mL | plasma concentration of TMC278 (dog 19072, 648 h (d27)): 7.91 ng/mL | plasma concentration of TMC278 (dog 19072, 696 h (d29)): 10.2 ng/mL | plasma concentration of TMC278 (dog 19072, 864 h (d36)): 6.18 ng/mL | plasma concentration of TMC278 (dog 19072, 1032 h (d43)): 6.32 ng/mL | plasma concentration of TMC278 (dog 19072, 1200 h (d50)): 4.56 ng/mL | plasma concentration of TMC278 (dog 19072, 1368 h (d57)): 4.73 ng/mL | plasma concentration of TMC278 (dog 19072, 1536 h (d64)): 4.47 ng/mL | plasma concentration of TMC278 (dog 19072, 1704 h (d71)): 3.38 ng/mL | plasma concentration of TMC278 (dog 19072, 1872 h (d78)): 3.12 ng/mL | plasma concentration of TMC278 (dog 19072, 2040 h (d85)): 3.20 ng/mL | plasma concentration of TMC278 (dog 19072, 2208 h (d92)): 2.96 ng/mL | AUC0-312 h (dog 19080): 20900 ng·h/mL | AUC0-696 h (dog 19080): 30500 ng·h/mL | AUC0-2208 h (dog 19080): 39900 ng·h/mL | Cmax (dog 19080): 105 ng/mL | Tmax (dog 19080): 48 h | plasma concentration of TMC278 (dog 19080, 0 h (d0, predose)): <1.00 ng/mL | plasma concentration of TMC278 (dog 19080, 1 h): 7.19 ng/mL | plasma concentration of TMC278 (dog 19080, 3 h): 16.3 ng/mL | plasma concentration of TMC278 (dog 19080, 8 h): 27.1 ng/mL | plasma concentration of TMC278 (dog 19080, 24 h (d1)): 69.8 ng/mL | plasma concentration of TMC278 (dog 19080, 48 h (d2)): 105 ng/mL | plasma concentration of TMC278 (dog 19080, 72 h (d3)): 69.5 ng/mL | plasma concentration of TMC278 (dog 19080, 144 h (d6)): 62.3 ng/mL | plasma concentration of TMC278 (dog 19080, 192 h (d8)): 65.8 ng/mL | plasma concentration of TMC278 (dog 19080, 240 h (d10)): 82.2 ng/mL | plasma concentration of TMC278 (dog 19080, 312 h (d13)): 45.8 ng/mL | plasma concentration of TMC278 (dog 19080, 384 h (d16)): 31.9 ng/mL | plasma concentration of TMC278 (dog 19080, 480 h (d20)): 25.5 ng/mL | plasma concentration of TMC278 (dog 19080, 648 h (d27)): 14.4 ng/mL | plasma concentration of TMC278 (dog 19080, 696 h (d29)): 18.8 ng/mL | plasma concentration of TMC278 (dog 19080, 864 h (d36)): 11.4 ng/mL | plasma concentration of TMC278 (dog 19080, 1032 h (d43)): 8.18 ng/mL | plasma concentration of TMC278 (dog 19080, 1200 h (d50)): 5.68 ng/mL | plasma concentration of TMC278 (dog 19080, 1368 h (d57)): 5.08 ng/mL | plasma concentration of TMC278 (dog 19080, 1536 h (d64)): 4.43 ng/mL | plasma concentration of TMC278 (dog 19080, 1704 h (d71)): 3.90 ng/mL | plasma concentration of TMC278 (dog 19080, 1872 h (d78)): 3.20 ng/mL | plasma concentration of TMC278 (dog 19080, 2040 h (d85)): 4.00 ng/mL | plasma concentration of TMC278 (dog 19080, 2208 h (d92)): 2.81 ng/mL | AUC0-312 h (mean of 2 dogs): 18000 ng·h/mL | AUC0-696 h (mean of 2 dogs): 25400 ng·h/mL | AUC0-2208 h (mean of 2 dogs): 33600 ng·h/mL | Cmax (mean of 2 dogs): 95.3 ng/mL | Tmax (mean of 2 dogs): 48 h | plasma concentration of TMC278 (mean of 2 dogs, 0 h (d0, predose)): <1.00 ng/mL | plasma concentration of TMC278 (mean of 2 dogs, 1 h): 7.50 ng/mL | plasma concentration of TMC278 (mean of 2 dogs, 3 h): 15.5 ng/mL | plasma concentration of TMC278 (mean of 2 dogs, 8 h): 29.7 ng/mL | plasma concentration of TMC278 (mean of 2 dogs, 24 h (d1)): 60.0 ng/mL | plasma concentration of TMC278 (mean of 2 dogs, 48 h (d2)): 95.3 ng/mL | plasma concentration of TMC278 (mean of 2 dogs, 72 h (d3)): 58.5 ng/mL | plasma concentration of TMC278 (mean of 2 dogs, 144 h (d6)): 55.3 ng/mL | plasma concentration of TMC278 (mean of 2 dogs, 192 h (d8)): 56.3 ng/mL | plasma concentration of TMC278 (mean of 2 dogs, 240 h (d10)): 69.0 ng/mL | plasma concentration of TMC278 (mean of 2 dogs, 312 h (d13)): 36.4 ng/mL | plasma concentration of TMC278 (mean of 2 dogs, 384 h (d16)): 24.5 ng/mL | plasma concentration of TMC278 (mean of 2 dogs, 480 h (d20)): 19.6 ng/mL | plasma concentration of TMC278 (mean of 2 dogs, 648 h (d27)): 11.2 ng/mL | plasma concentration of TMC278 (mean of 2 dogs, 696 h (d29)): 14.5 ng/mL | plasma concentration of TMC278 (mean of 2 dogs, 864 h (d36)): 8.79 ng/mL | plasma concentration of TMC278 (mean of 2 dogs, 1032 h (d43)): 7.25 ng/mL | plasma concentration of TMC278 (mean of 2 dogs, 1200 h (d50)): 5.12 ng/mL | plasma concentration of TMC278 (mean of 2 dogs, 1368 h (d57)): 4.91 ng/mL | plasma concentration of TMC278 (mean of 2 dogs, 1536 h (d64)): 4.45 ng/mL | plasma concentration of TMC278 (mean of 2 dogs, 1704 h (d71)): 3.64 ng/mL | plasma concentration of TMC278 (mean of 2 dogs, 1872 h (d78)): 3.16 ng/mL | plasma concentration of TMC278 (mean of 2 dogs, 2040 h (d85)): 3.60 ng/mL | plasma concentration of TMC278 (mean of 2 dogs, 2208 h (d92)): 2.89 ng/mL
